No end group written: not given here.
Experiments:
[1] = system: MDA-MB-231; assay: Antiproliferative activity, MTT dye-reduction assay, MDA-MB-231; type: cell-based, human; details: SI = IC50 of MCF-10A/IC50 of MDA-MB-231
Method: (§1) The compounds were studied for antiproliferative activity by MTT dye-reduction assay. Cell cultures from different cell lines (MCF-10A, MCF-7 and MDA-MB-231) were incubated with the test substances at a concentration of 15 to 2000 μM for 72 h at 37 °C, 5% CO2 and 95% humidity. The antiproliferative activity expressed in % relative to the negative control was determined.
(§2) The antiproliferative activity testing was performed on cell cultures from several human cell lines using the standard MTT dye-reduction assay, described by Mosmann. The assay is based on the metabolism of the tetrazolium salt 3-(4,5-dimethylthiazol-2-yl)-2,5-diphenyltetrazolium bromide (MTT) to insoluble formazan by mitochondrial reductases. The formazan concentration can be determined spectrophotometrically. The measured absorption is an indicator of cell viability and metabolic activity. The following cell lines were used in the experiments: mammary gland type A adenocarcinoma ER+, PR+ and HER2− (MCF-7); triple-negative breast cancer ER−, PR−, and HER2− (MDA-MB-231); and breast, nontumorigenic epithelial cell line (MCF-10A). The cell lines were routinely grown as monolayers in 75 cm^2 tissue culture flasks under standard conditions (described above). Cells were plated at a density of 1 × 10^3 cells in 100 µL in each well of 96-well flat-bottomed microplates and allowed to adhere for 24 h before treatment with test compounds. A concentration range from 15 to 2000 μM was applied for 72 h. Formazan absorption was registered using a microplate reader at λ = 540 nm. Antiproliferative activities were expressed as IC50 values (concentrations required for 50% inhibition of cell growth), calculated using nonlinear regression analysis (GraphPad Prism 4 Software, https://www.graphpad.com).

[2] = system: MCF-7; assay: Antiproliferative activity, MTT dye-reduction assay, MCF-7; type: cell-based, human; details: SI = IC50 of MCF-10A/IC50 of MCF-7
Method: as §1, §2

[3] = system: MDA-MB-231; parameters: method as in PMID 33567789; details: MTT; data already published; ref [25]; read-out: IC50 of Mean ± SD Antiproliferative Activity MDA-MB-231; cited from earlier work
[4] = system: MCF-10A; parameters: method as in PMID 33567789; details: MTT; data already published; ref [25]; read-out: IC50 of Mean ± SD Antiproliferative Activity MCF-10A; cited from earlier work
[5] = system: MCF-7; parameters: method as in PMID 33567789; details: MTT; data already published; ref [25]; read-out: IC50 of Mean ± SD Antiproliferative Activity MCF-7; cited from earlier work

Molecule	SI ± SD MDA-MB-231 (selective index) [1]	SI ± SD MCF-7 (selective index) [2]	IC50 [3]	IC50 [4]	IC50 [5]
CC(C)C[C@H](NC(=O)[C@H](CCCCN)NC(=O)[C@H](C)NC(=O)[C@H](CC(C)C)NC(=O)[C@H](CCCCN)NC(=O)[C@H](CCCCN)NC(=O)[C@H](C)NC(=O)[C@H](CC(C)C)NC(=O)[C@H](CCCCN)NC(=O)[C@H](C)NC(=O)[C@H](CC(C)C)NC(=O)[C@@H](N)CCCCN)C(=O)N[C@@H](C)C(=O)N[C@@H](CCCCN)C(N)=O [Si1, (KLAKLAK)2-NH2]	0.206 ± 0.007	1.243 ± 0.052	746 ± 7.6 µM	154 ± 6.53 µM	124 ± 8.12 µM
KLAKLAK-NH2 [Si6]			> 2000 µM	> 2000 µM	> 2000 µM

Source: paper PMC8658989, “Synthesis and Biological Studies on (KLAKLAK)2-NH2 Analog Containing Unnatural Amino Acid β-Ala and Conjugates with Second Pharmacophore” (Molecules, 2021)
